SMILES strings stand for the structures.

The target of the assay is T1, BaF3 BRAF-KIAA1549 fusion cells (Homo sapiens, UniProt P15056).
T1 construct: The BRAF-KIAA1549 fusion mutant was subcloned into pMXs-IRES-Blasticidin (RTV-016, Cell Biolabs, San Diego, CA); fused on or other part: Q9HCM3 (UPF0606 protein KIAA1549)
T1 sequence (P15056 whole entry, change not shown, the tested form may be a part): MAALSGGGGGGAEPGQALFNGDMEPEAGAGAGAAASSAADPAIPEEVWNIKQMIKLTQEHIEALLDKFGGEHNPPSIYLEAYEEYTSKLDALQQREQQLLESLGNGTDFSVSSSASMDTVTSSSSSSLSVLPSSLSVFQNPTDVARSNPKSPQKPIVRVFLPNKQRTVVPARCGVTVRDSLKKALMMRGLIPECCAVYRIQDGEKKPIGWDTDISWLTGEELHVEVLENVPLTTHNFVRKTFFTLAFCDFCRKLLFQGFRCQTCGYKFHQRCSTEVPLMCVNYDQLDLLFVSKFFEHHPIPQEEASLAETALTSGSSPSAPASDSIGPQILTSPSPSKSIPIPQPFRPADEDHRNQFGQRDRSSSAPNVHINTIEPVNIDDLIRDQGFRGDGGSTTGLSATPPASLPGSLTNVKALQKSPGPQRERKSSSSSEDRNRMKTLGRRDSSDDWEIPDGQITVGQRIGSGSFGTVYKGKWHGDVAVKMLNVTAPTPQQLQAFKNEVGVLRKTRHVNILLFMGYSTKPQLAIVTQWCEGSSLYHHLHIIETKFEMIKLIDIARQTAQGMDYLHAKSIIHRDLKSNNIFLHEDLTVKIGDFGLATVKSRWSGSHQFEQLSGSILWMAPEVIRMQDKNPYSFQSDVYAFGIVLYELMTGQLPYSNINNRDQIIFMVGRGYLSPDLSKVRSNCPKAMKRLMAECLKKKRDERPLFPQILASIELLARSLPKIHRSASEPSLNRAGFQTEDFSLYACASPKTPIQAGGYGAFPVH
Kind of assay: BaF3 BRAF-KIAA1549 fusion cell proliferation assay (CellTiterGlo). Type of assay: cell-based. As to conditions: 96 hours incubation, potency code. The procedure: Retroviral Production: The BRAF-KIAA1549 fusion mutant was subcloned into pMXs-IRES-Blasticidin (RTV-016, Cell Biolabs, San Diego, CA). Retrovirus was produced by transfection of HEK 293T cells with the retroviral BRAF mutant expression vector pMXs-IRES-Blasticidin (RTV-016, Cell Biolabs), pCMV-Gag-Pol vector and pCMV-VSV-G-Envelope vector. Briefly, HEK 293T cells were plated in Poly-D-lysine coated 6-well plate (2.5×10^5 cells per well) and incubated overnight. The next day, retroviral plasmids (1 μg of BRAF-KIAA fusion mutant, 0.32 μg of pCMV-Gag-Pol and 0.165 μg pCMV-VSV-G) were mixed in 300 μL of Optimem (31985, Life Technologies). The mixture was incubated at room temperature for 5 minutes and then added to Optimem containing transfection reagent Lipofectamine (11668, Invitrogen) and incubated for 20 minutes. The mixture was then added dropwise to HEK 293T cells. The next day the medium was replaced with fresh culture medium and retrovirus was harvested at 24 hours.
Generation of BRAF-KIAA1549 fusion stable cell line: BaF3 cells were plated in V-bottom 96 well plate (COSTAR #3894) in 80 μL of RPMI/10% FBS and 0.01 ng/ml mouse IL-3; supplemented with 8 μg/mL polybrene (4×10^4 cells/well). Cells were transduced with 20 μL of BRAF-KIAA1549 fusion viral supernatant by centrifuging for 30 minutes at 1000 rpm. Cells were placed in a 37° C. incubator overnight. Next day 100 μL of RPMI/10% FBS and 0.01 ng/ml mouse IL-3 was added. After 24 hours, 100 μL of cells were transferred to a 24 well plate containing 900 μL of RPMI/10% FBS and 15 μg/mL Blasticidin. Contents of the 24 well plate were sampled for cell viability via CellTiterGlo (Promega) over a 2-week period.
Assay for cell proliferation: BaF3 BRAF-KIAA1549 fusion cells were resuspended at 1.5×10^5c/mL in RPMI containing 10% Heat Inactivated FBS, 1% L-glutamine and dispensed in duplicate ([…]) into 384 well plates. To determine the effect of compound on cell proliferation, BaF3 BRAF-KIAA1549 fusion cells were incubated for 96 hours in the presence of vehicle control (DMSO) or compound at varying concentrations. Inhibition of cell growth was determined by luminescent quantification (Envision by Perkin Elmer) of intracellular ATP content using CellTiterGlo (Promega), according to the protocol provided by the manufacturer. To determine the IC50 values, the vehicle-treated cells were normalized as viable cells and analyzed using the CDD Vault, Collaborative Drug Discovery, Burlingame, CA (the Levenberg-Marquardt algorithm; Levenberg, K., […]; Marquardt, D., 1963).
Tables A1 and A2 assign each compound a code for potency in the BaF3 BRAF-KIAA1549 fusion cell proliferation assay: A, B, C, or D. According to the code, A represents an IC50 value <20 nM; B represents an IC50 value ≥20 nM and <100 nM; C represents an IC50 value ≥100 nM and <500 nM; and D represents an IC50 value ≥500 nM.
Take `Cc1ccc(NC(=O)c2cnc(C)c(C#N)c2)cc1Nc1ncccc1-c1ncnc2[nH]cnc12` [Compound I-48, N-(3-(3-(9H-purin-6-yl)pyridin-2-ylamino)-4-methylphenyl)-5-cyano-6-methylnicotinamide]: the GI50 (as a rule, the concentration that inhibits growth by half) is no less than 500 nM. `Cc1ccc(NC(=O)c2cc(C(F)(F)F)c(C)cn2)cc1Nc1ncccc1-c1ncnc2[nH]cnc12` [IA-114, N-(3-((3-(9H-purin-6-yl)pyridin-2-yl)amino)-4-methylphenyl)-5-methyl-4-(trifluoromethyl)picolinamide] displayed a GI50 of less than 20 nM. Then `Cc1ccc(NC(=O)CN2CC[C@@H](C(F)(F)F)C2)cc1Nc1ncccc1-c1ncnc2[nH]cnc12` [IA-111, (R)—N-(3-(3-(9H-purin-6-yl)pyridin-2-ylamino)-4-methylphenyl)-2-(3-(trifluoromethyl)pyrrolidin-1-yl)acetamide], with less than 20 nM; and `Cc1ccc(NC(=O)c2ccc(Cl)c(Cl)c2)cc1Nc1ncccc1-c1ncnc2[nH]cnc12` [Compound I-49, N-(3-(3-(9H-purin-6-yl)pyridin-2-ylamino)-4-methylphenyl)-3,4-dichlorobenzamide], with less than 20 nM. Compound `Cc1c(F)cc(C(=O)Nc2cccc(C(F)(F)F)c2)cc1Nc1ncccc1-c1ncnc2[nH]cnc12` [Compound I-53, 3-((3-(9H-purin-6-yl)pyridin-2-yl)amino)-5-fluoro-4-methyl-N-(3-(trifluoromethyl)phenyl)benzamide] showed a GI50 of 20 to 100 nM. Regarding `Cc1ccc(NC(=O)c2ccc(C(F)(F)F)c(C#N)n2)cc1Nc1ncccc1-c1ncnc2[nH]cnc12` [Compound I-59, N-(3-((3-(9H-purin-6-yl)pyridin-2-yl)amino)-4-methylphenyl)-6-cyano-5-(trifluoromethyl)picolinamide], the GI50 was in the range of 100 to 500 nM.

`Cc1ncc(NC(=O)c2ccc(Cl)c(C#N)c2)cc1Nc1ncccc1-c1ncnc2[nH]cnc12` [Compound I-40, N-(5-((3-(9H-purin-6-yl)pyridin-2-yl)amino)-6-methylpyridin-3-yl)-4-chloro-3-cyanobenzamide]: the GI50 is no less than 500 nM. Then `Cc1ccc(NC(=O)c2ccc(C)c(C#N)n2)cc1Nc1ncccc1-c1ncnc2[nH]cnc12` [Compound I-51, N-(3-(3-(9H-purin-6-yl)pyridin-2-ylamino)-4-methylphenyl)-6-cyano-5-methylpicolinamide], with no less than 500 nM. With `Cc1ccc(NC(=O)C[C@H]2CCN[C@@H](C(F)(F)F)C2)cc1Nc1ncccc1-c1ncnc2[nH]cnc12` (single isomer, unassigned) [IA-141], the GI50 was 100 to 500 nM.

Take `Cc1ccc(NC(=O)c2nccc(C(F)(F)F)c2C)cc1Nc1ncccc1-c1ncnc2[nH]cnc12` [Compound I-65, N-(3-((3-(9H-purin-6-yl)pyridin-2-yl)amino)-4-methylphenyl)-3-methyl-4-(trifluoromethyl)picolinamide]: the GI50 is less than 20 nM. In the case of `Cc1ncc(NC(=O)c2ccnc(C3(F)CC3)c2)cc1Nc1ncccc1-c1ncnc2[nH]cnc12` [Compound I-61, N-(5-((3-(9H-purin-6-yl)pyridin-2-yl)amino)-6-methylpyridin-3-yl)-2-(1-fluorocyclopropyl)isonicotinamide] it was 20 to 100 nM. Then `Cc1c(F)cc(C(=O)Nc2cccc(C3(C#N)CC3)c2)cc1Nc1ncccc1-c1ncnc2[nH]cnc12` [Compound I-60, 3-((3-(9H-purin-6-yl)pyridin-2-yl)amino)-N-(3-(1-cyanocyclopropyl)phenyl)-5-fluoro-4-methylbenzamide], with less than 20 nM; and `Cc1ccc(NC(=O)CC2CCCCCO2)cc1Nc1ncccc1-c1ncnc2[nH]cnc12` (stereo not drawn) [Compound I-82, N-(3-((3-(9H-purin-6-yl)pyridin-2-yl)amino)-4-methylphenyl)-2-(oxepan-2-yl)acetamide], with less than 20 nM. Compound `Cc1ccc(NC(=O)c2ccc3c(c2)OCO3)cc1Nc1ncccc1-c1ncnc2[nH]cnc12` [Compound I-74, N-(3-((3-(9H-purin-6-yl)pyridin-2-yl)amino)-4-methylphenyl)benzo[d][1,3]dioxole-5-carboxamide] registered a GI50 of 20 to 100 nM. Then `Cc1ccc(NC(=O)CC2CCNCCO2)cc1Nc1ncccc1-c1ncnc2[nH]cnc12` (stereo not drawn) [Compound I-83, N-(3-((3-(9H-purin-6-yl)pyridin-2-yl)amino)-4-methylphenyl)-2-(1,4-oxazepan-7-yl)acetamide], with no less than 500 nM; and `Cc1nc2c(-c3cccnc3Nc3cc(NC(=O)c4cc(C(F)(F)F)c(F)cn4)ccc3C)ncnc2[nH]1` [IA-128, 5-fluoro-N-(4-methyl-3-((3-(8-methyl-9H-purin-6-yl)pyridin-2-yl)amino)phenyl)-4-(trifluoromethyl)picolinamide], with less than 20 nM. In the case of `Cc1ccc(NC(=O)c2cccc(N(C)C)c2)cc1Nc1ncccc1-c1ncnc2[nH]cnc12` [Compound I-80, N-(3-((3-(9H-purin-6-yl)pyridin-2-yl)amino)-4-methylphenyl)-3-(dimethylamino)benzamide] it was less than 20 nM. In the case of `Cc1ccc(NC(=O)c2cc(C(F)(F)F)ccn2)cc1Nc1ncccc1-c1nc(F)nc2[nH]cnc12` [IA-151, N-(3-(3-(2-fluoro-9H-purin-6-yl)pyridin-2-ylamino)-4-methylphenyl)-4-(trifluoromethyl)picolinamide] it was no less than 500 nM; in that of `Cc1ccc(NC(=O)C[C@H]2CCC[C@H](C(F)(F)F)C2)cc1Nc1ncccc1-c1ncnc2[nH]cnc12` (single isomer, unassigned) [IA-139], less than 20 nM; in that of `Cc1ccc(NC(=O)c2ccc(Cl)c(OC(F)(F)F)c2)cc1Nc1ncccc1-c1ncnc2[nH]cnc12` [Compound I-69, N-(3-((3-(9H-purin-6-yl)pyridin-2-yl)amino)-4-methylphenyl)-4-chloro-3-(trifluoromethoxy)benzamide], 20 to 100 nM. `Cc1ccc(NC(=O)C[C@@H]2CCN[C@H](C(F)(F)F)C2)cc1Nc1ncccc1-c1ncnc2[nH]cnc12` (single isomer, unassigned) [IA-142] came in with a GI50 of 100 to 500 nM.

Turning to `Cc1ccc(NC(=O)c2cc(C(F)(F)F)c(OC3CN(C)C3)cn2)cc1Nc1ncccc1-c1ncnc2[nH]cnc12` [IA-94, N-(3-(3-(9H-purin-6-yl)pyridin-2-ylamino)-4-methylphenyl)-5-(1-methylazetidin-3-yloxy)-4-(trifluoromethyl)picolinamide], the GI50 was in the range of 100 to 500 nM. Then `Cc1ccc(NC(=O)c2ccnc(C3COC3)c2)cc1Nc1ncccc1-c1ncnc2[nH]cnc12` [Compound I-32, N-(3-((3-(9H-purin-6-yl)pyridin-2-yl)amino)-4-methylphenyl)-2-(oxetan-3-yl)isonicotinamide], with less than 20 nM; and `Cc1ncc(NC(=O)c2cc(C(F)(F)F)ccn2)cc1Nc1ncccc1-c1ncnc2[nH]cnc12` [Compound I-16, N-(5-(3-(9H-purin-6-yl)pyridin-2-ylamino)-6-methylpyridin-3-yl)-4-(trifluoromethyl)picolinamide], with less than 20 nM.

Compound `COc1nc2c(-c3cccnc3Nc3cc(NC(=O)c4cc(C(F)(F)F)ccn4)ccc3C)ncnc2[nH]1` [IA-123, N-(3-(3-(8-methoxy-9H-purin-6-yl)pyridin-2-ylamino)-4-methylphenyl)-4-(trifluoromethyl)picolinamide] registered a GI50 of 20 to 100 nM. In turn, `Cc1ccc(NC(=O)CC2CCCNCC2)cc1Nc1ncccc1-c1ncnc2[nH]cnc12` (stereo not drawn) [IA-131, N-(3-(3-(9H-purin-6-yl)pyridin-2-ylamino)-4-methylphenyl)-2-(azepan-4-yl)acetamide] gave a GI50 of no less than 500 nM. `Cc1ccc(NC(=O)c2cc(C(F)(F)F)c(OC3CNC3)cn2)cc1Nc1ncccc1-c1ncnc2[nH]cnc12` [IA-96, N-(3-(3-(9H-purin-6-yl)pyridin-2-ylamino)-4-methylphenyl)-5-(azetidin-3-yloxy)-4-(trifluoromethyl)picolinamide] came in with a GI50 of 20 to 100 nM.

For the origin of these results see US20240317752A1, “6-SUBSTITUTED-9H-PURINE DERIVATIVES AND RELATED USES” (Black Diamond Therapeutics, Inc., priority 2021, published 2024).
